Experimental data from the supplement of paper PMC10307832.

Legend:
Assay in all cases: relative viability (nuclei count vs DMSO), 5 days (fraction); higher = more cells survive
[1] = compound: C1=CC=C2C(=C1)N=C(S2)C(C#N)C3=NC(=NC=C3)NCCC4=CN=CC=C4
Summary of the method: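 Five library-drug doses, separated by factors of √10, were pinned into 1536-well plates holding lung cancer cell lines after an overnight stay at 37 °C. Cells were fixed, permeabilised and Hoechst-stained in one step after 5 days without medium change, then imaged at 4×. Viability compares treated-well with vehicle-well nuclei, counted in MetaXpress, as a median across plates. Passing plates had control CV below 25% and at least one doubling.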

[2] = compound: C1=CC=C2C(=C1)N=C(S2)C(C#N)C3=NC(=NC=C3)NCCC4=CN=CC=C4 + Cc1cc(Nc2cc(N3CCN(C)CC3)nc(Sc3ccc(NC(=O)C4CC4)cc3)n2)n[nH]1 [Tozasertib] (partner 0.1 µM)
Summary of the method: (§1)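 Nuclei were stained with Hoechst during a one-step fixation (final 0.05% Triton X-100, 1% formaldehyde, 1 ug/ml Hoechst) carried out 5 days after dosing, then counted on 4× images. The cells, lung cancer lines in 1536-well plates, had been dosed by pin tool the day after seeding with one drug alone or a fixed anchor-drug dose plus five library-drug doses (not always all listed) in √10 steps. Relative viability is the nuclei count in treated wells divided by that in vehicle wells, and each value is the median of duplicate plates.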

CUDC-101 + Foretinib = compound: C#Cc1cccc(Nc2ncnc3cc(OC)c(OCCCCCCC(=O)NO)cc23)c1 [CUDC-101] + COc1cc2c(Oc3ccc(NC(=O)C4(C(=O)Nc5ccc(F)cc5)CC4)cc3F)ccnc2cc1OCCCN1CCOCC1 [Foretinib] (partner 0.25 µM)
Summary of the method: as §1

CUDC-101 + Lapatinib = compound: C#Cc1cccc(Nc2ncnc3cc(OC)c(OCCCCCCC(=O)NO)cc23)c1 [CUDC-101] + CS(=O)(=O)CCNCc1ccc(-c2ccc3ncnc(Nc4ccc(OCc5cccc(F)c5)c(Cl)c4)c3c2)o1 [Lapatinib] (partner 2 µM)
Summary of the method: as §1

NCI-H2085
relative viability ([1]; 0.005 µM): 0.928 | relative viability ([1]; 0.01581 µM): 0.983 | relative viability ([1]; 0.05 µM): 0.977 | relative viability ([1]; 0.1581 µM): 1.01 | relative viability ([1]; 0.5 µM): 0.998 | relative viability ([2]; first compound 0.005 µM): 0.826 | relative viability ([2]; first compound 0.01581 µM): 0.821 | relative viability ([2]; first compound 0.05 µM): 0.744 | relative viability ([2]; first compound 0.1581 µM): 0.813 | relative viability ([2]; first compound 0.5 µM): 0.566 | relative viability (CUDC-101 + Foretinib; first compound 0.01 µM): 0.964 | relative viability (CUDC-101 + Foretinib; first compound 0.03162 µM): 0.929 | relative viability (CUDC-101 + Foretinib; first compound 0.1 µM): 0.823 | relative viability (CUDC-101 + Foretinib; first compound 0.3162 µM): 0.996 | relative viability (CUDC-101 + Foretinib; first compound 1 µM): 0.697 | relative viability (CUDC-101 + Lapatinib; first compound 0.01 µM): 0.817 | relative viability (CUDC-101 + Lapatinib; first compound 0.03162 µM): 0.686 | relative viability (CUDC-101 + Lapatinib; first compound 0.1 µM): 0.826 | relative viability (CUDC-101 + Lapatinib; first compound 0.3162 µM): 0.752 | relative viability (CUDC-101 + Lapatinib; first compound 1 µM): 0.502

NCI-H2087
relative viability ([1]; 0.005 µM): 0.993 | relative viability ([1]; 0.01581 µM): 1.03 | relative viability ([1]; 0.05 µM): 1.03 | relative viability ([1]; 0.1581 µM): 1.13 | relative viability ([1]; 0.5 µM): 0.981 | relative viability ([2]; first compound 0.005 µM): 0.201 | relative viability ([2]; first compound 0.01581 µM): 0.229 | relative viability ([2]; first compound 0.05 µM): 0.234 | relative viability ([2]; first compound 0.1581 µM): 0.199 | relative viability ([2]; first compound 0.5 µM): 0.211 | relative viability (CUDC-101 + Foretinib; first compound 0.01 µM): 1.33 | relative viability (CUDC-101 + Foretinib; first compound 0.03162 µM): 1.03 | relative viability (CUDC-101 + Foretinib; first compound 0.1 µM): 1.08 | relative viability (CUDC-101 + Foretinib; first compound 0.3162 µM): 1.04 | relative viability (CUDC-101 + Foretinib; first compound 1 µM): 0.664 | relative viability (CUDC-101 + Lapatinib; first compound 0.01 µM): 0.986 | relative viability (CUDC-101 + Lapatinib; first compound 0.03162 µM): 1.37 | relative viability (CUDC-101 + Lapatinib; first compound 0.1 µM): 1.04 | relative viability (CUDC-101 + Lapatinib; first compound 0.3162 µM): 1.04 | relative viability (CUDC-101 + Lapatinib; first compound 1 µM): 0.761

NCI-H1395
relative viability ([1]; 0.005 µM): 0.876 | relative viability ([1]; 0.05 µM): 0.922 | relative viability ([1]; 0.1581 µM): 1.11 | relative viability ([1]; 0.5 µM): 0.995 | relative viability ([2]; first compound 0.005 µM): 0.684 | relative viability ([2]; first compound 0.01581 µM): 0.69 | relative viability ([2]; first compound 0.05 µM): 0.755 | relative viability ([2]; first compound 0.1581 µM): 0.713 | relative viability ([2]; first compound 0.5 µM): 0.756 | relative viability (CUDC-101 + Foretinib; first compound 0.01 µM): 1.05 | relative viability (CUDC-101 + Foretinib; first compound 0.03162 µM): 0.846 | relative viability (CUDC-101 + Foretinib; first compound 0.1 µM): 1.01 | relative viability (CUDC-101 + Foretinib; first compound 0.3162 µM): 1.09 | relative viability (CUDC-101 + Foretinib; first compound 1 µM): 0.844 | relative viability (CUDC-101 + Lapatinib; first compound 0.01 µM): 1.04 | relative viability (CUDC-101 + Lapatinib; first compound 0.03162 µM): 1.13 | relative viability (CUDC-101 + Lapatinib; first compound 0.1 µM): 1.05 | relative viability (CUDC-101 + Lapatinib; first compound 0.3162 µM): 0.862 | relative viability (CUDC-101 + Lapatinib; first compound 1 µM): 0.661

COR-L 105
relative viability ([1]; 0.005 µM): 0.8 | relative viability ([1]; 0.01581 µM): 0.711 | relative viability ([1]; 0.05 µM): 0.774 | relative viability ([1]; 0.1581 µM): 0.941 | relative viability ([1]; 0.5 µM): 0.768 | relative viability ([2]; first compound 0.005 µM): 0.324 | relative viability ([2]; first compound 0.01581 µM): 0.338 | relative viability ([2]; first compound 0.05 µM): 0.315 | relative viability ([2]; first compound 0.1581 µM): 0.339 | relative viability ([2]; first compound 0.5 µM): 0.351 | relative viability (CUDC-101 + Foretinib; first compound 0.01 µM): 0.941 | relative viability (CUDC-101 + Foretinib; first compound 0.03162 µM): 0.987 | relative viability (CUDC-101 + Foretinib; first compound 0.1 µM): 0.951 | relative viability (CUDC-101 + Foretinib; first compound 0.3162 µM): 0.793 | relative viability (CUDC-101 + Foretinib; first compound 1 µM): 0.527 | relative viability (CUDC-101 + Lapatinib; first compound 0.01 µM): 0.425 | relative viability (CUDC-101 + Lapatinib; first compound 0.03162 µM): 0.356 | relative viability (CUDC-101 + Lapatinib; first compound 0.1 µM): 0.316 | relative viability (CUDC-101 + Lapatinib; first compound 0.3162 µM): 0.264 | relative viability (CUDC-101 + Lapatinib; first compound 1 µM): 0.226

CAL-12T
relative viability ([1]; 0.005 µM): 1 | relative viability ([1]; 0.01581 µM): 0.912 | relative viability ([1]; 0.05 µM): 0.962 | relative viability ([1]; 0.1581 µM): 1.07 | relative viability ([1]; 0.5 µM): 0.798 | relative viability ([2]; first compound 0.005 µM): 0.222 | relative viability ([2]; first compound 0.01581 µM): 0.336 | relative viability ([2]; first compound 0.05 µM): 0.275 | relative viability ([2]; first compound 0.1581 µM): 0.388 | relative viability ([2]; first compound 0.5 µM): 0.197 | relative viability (CUDC-101 + Foretinib; first compound 0.01 µM): 1.11 | relative viability (CUDC-101 + Foretinib; first compound 0.03162 µM): 1.06 | relative viability (CUDC-101 + Foretinib; first compound 0.1 µM): 1.18 | relative viability (CUDC-101 + Foretinib; first compound 0.3162 µM): 1.16 | relative viability (CUDC-101 + Foretinib; first compound 1 µM): 1.16 | relative viability (CUDC-101 + Lapatinib; first compound 0.01 µM): 0.796 | relative viability (CUDC-101 + Lapatinib; first compound 0.03162 µM): 0.603 | relative viability (CUDC-101 + Lapatinib; first compound 0.1 µM): 0.763 | relative viability (CUDC-101 + Lapatinib; first compound 0.3162 µM): 0.64 | relative viability (CUDC-101 + Lapatinib; first compound 1 µM): 0.567

A-427
relative viability ([1]; 0.005 µM): 0.993 | relative viability ([1]; 0.01581 µM): 0.875 | relative viability ([1]; 0.05 µM): 0.919 | relative viability ([1]; 0.1581 µM): 1.15 | relative viability ([1]; 0.5 µM): 0.95 | relative viability ([2]; first compound 0.005 µM): 0.203 | relative viability ([2]; first compound 0.01581 µM): 0.181 | relative viability ([2]; first compound 0.05 µM): 0.222 | relative viability ([2]; first compound 0.1581 µM): 0.227 | relative viability ([2]; first compound 0.5 µM): 0.203 | relative viability (CUDC-101 + Foretinib; first compound 0.01 µM): 1.01 | relative viability (CUDC-101 + Foretinib; first compound 0.03162 µM): 0.975 | relative viability (CUDC-101 + Foretinib; first compound 0.1 µM): 1.01 | relative viability (CUDC-101 + Foretinib; first compound 0.3162 µM): 1.06 | relative viability (CUDC-101 + Foretinib; first compound 1 µM): 0.877 | relative viability (CUDC-101 + Lapatinib; first compound 0.01 µM): 0.933 | relative viability (CUDC-101 + Lapatinib; first compound 0.03162 µM): 1.04 | relative viability (CUDC-101 + Lapatinib; first compound 0.1 µM): 1 | relative viability (CUDC-101 + Lapatinib; first compound 0.3162 µM): 0.914 | relative viability (CUDC-101 + Lapatinib; first compound 1 µM): 1.01

NCI-H1975
relative viability ([1]; 0.005 µM): 0.858 | relative viability ([1]; 0.01581 µM): 0.912 | relative viability ([1]; 0.05 µM): 1.01 | relative viability ([1]; 0.1581 µM): 1.1 | relative viability ([1]; 0.5 µM): 0.653 | relative viability ([2]; first compound 0.005 µM): 0.458 | relative viability ([2]; first compound 0.01581 µM): 0.741 | relative viability ([2]; first compound 0.05 µM): 0.635 | relative viability ([2]; first compound 0.1581 µM): 0.878 | relative viability ([2]; first compound 0.5 µM): 0.203 | relative viability (CUDC-101 + Foretinib; first compound 0.01 µM): 0.856 | relative viability (CUDC-101 + Foretinib; first compound 0.03162 µM): 1.03 | relative viability (CUDC-101 + Foretinib; first compound 0.1 µM): 0.99 | relative viability (CUDC-101 + Foretinib; first compound 0.3162 µM): 1.04 | relative viability (CUDC-101 + Foretinib; first compound 1 µM): 0.808 | relative viability (CUDC-101 + Lapatinib; first compound 0.01 µM): 1.02 | relative viability (CUDC-101 + Lapatinib; first compound 0.03162 µM): 0.913 | relative viability (CUDC-101 + Lapatinib; first compound 0.1 µM): 0.844 | relative viability (CUDC-101 + Lapatinib; first compound 0.3162 µM): 0.82 | relative viability (CUDC-101 + Lapatinib; first compound 1 µM): 0.411

NCI-H1993
relative viability ([1]; 0.005 µM): 0.901 | relative viability ([1]; 0.01581 µM): 0.882 | relative viability ([1]; 0.05 µM): 0.929 | relative viability ([1]; 0.1581 µM): 1.04 | relative viability ([1]; 0.5 µM): 0.842 | relative viability ([2]; first compound 0.005 µM): 0.625 | relative viability ([2]; first compound 0.01581 µM): 0.657 | relative viability ([2]; first compound 0.05 µM): 0.521 | relative viability ([2]; first compound 0.1581 µM): 0.608 | relative viability ([2]; first compound 0.5 µM): 0.577 | relative viability (CUDC-101 + Foretinib; first compound 0.01 µM): 0.862 | relative viability (CUDC-101 + Foretinib; first compound 0.03162 µM): 0.791 | relative viability (CUDC-101 + Foretinib; first compound 0.1 µM): 0.839 | relative viability (CUDC-101 + Foretinib; first compound 0.3162 µM): 0.734 | relative viability (CUDC-101 + Foretinib; first compound 1 µM): 0.612 | relative viability (CUDC-101 + Lapatinib; first compound 0.01 µM): 0.758 | relative viability (CUDC-101 + Lapatinib; first compound 0.03162 µM): 0.899 | relative viability (CUDC-101 + Lapatinib; first compound 0.1 µM): 1.03 | relative viability (CUDC-101 + Lapatinib; first compound 0.3162 µM): 0.995 | relative viability (CUDC-101 + Lapatinib; first compound 1 µM): 0.635
